Test results from the NIST ThermoML archive (doi:10.1016/j.fluid.2007.09.028).

Assay: xn = mol fraction of the nth substance listed
Conditions: 101 kPa, Liquid

Clc1ccccc1 [chlorobenzene] + CC(C)(C)O
mass density [kg/m3]
Conditions	303.15 K	308.15 K	313.15 K	318.15 K	323.15 K
x2 = 0	1095.64	1090.23	1084.82	1079.42	1073.97
x2 = 0.0514	1078.9	1073.42	1067.94	1062.44	1056.94
x2 = 0.1001	1063.67	1058.13	1052.58	1047.01	1041.43
x2 = 0.1498	1048.32	1042.74	1037.14	1031.52	1025.89
x2 = 0.199	1033.1	1027.51	1021.89	1016.24	1010.56
x2 = 0.2505	1017.18	1011.59	1005.96	1000.3	994.615
x2 = 0.3	1001.8	996.225	990.603	984.94	979.276
x2 = 0.351	985.908	980.337	974.721	969.053	963.346
x2 = 0.3707	979.707	974.152	968.545	962.885	957.187
x2 = 0.3997	970.62	965.075	959.477	953.823	948.132
x2 = 0.45	954.724	949.206	943.631	937.997	932.311
x2 = 0.5	938.79	933.303	927.755	922.142	916.464
x2 = 0.5499	922.845	917.39	911.872	906.286	900.633
x2 = 0.6003	906.668	901.248	895.76	890.201	884.578
x2 = 0.6499	890.559	885.172	879.716	874.189	868.592
x2 = 0.7002	874.261	868.904	863.477	857.976	852.408
x2 = 0.7482	858.49	853.167	847.772	842.3	836.757
x2 = 0.7998	841.567	836.267	830.896	825.45	819.931
x2 = 0.8498	825.04	819.768	814.423	809	803.512
x2 = 0.9004	808.338	803.082	797.754	792.35	786.87
